Measurements: patent US11969448B2, “Method for improving an effect of chemotherapeutic drug of gemcitabine on inhibiting pancreatic cancer and improving side effect of chemotherapeutic drug of Gemcitabine” (GENMONT BIOTECH INC., priority 2020, dated 2024)

Columns and labels:
[1] = test system: BXPC-3 pancreatic cancer cells; experiment: MTT test, Experiment 2: BXPC-3 cells treated with probiotic lysates combined with Gemcitabine; type: cell-based; settings: Gemcitabine 10 ng/mL alone; cultured 0 to 6 days; FIG. 7A
Experimental: 2500 BXPC-3 pancreatic cancer cells were seeded into each well of a 96-well plate, and the 96-well plate was incubated at 37° C. overnight. After the old cell culture medium was aspirated, the fresh culture medium containing the lysate of the Lactobacillus reuteri GMNL-89, the lysate of the Lactobacillus paracasei GMNL-133 (25 ug/mL of concentration), or the lysate of the Lactobacillus reuteri GMNL-89 and the Lactobacillus paracasei GMNL-133 (i.e., the probiotic composition of the present disclosure) were respectively mixed with the fresh culture medium containing the chemotherapeutic drug of Gemcitabine (10 ng/mL of concentration) to be added to the BXPC-3 pancreatic cancer cells. Then, the BXPC-3 pancreatic cancer cells were cultured for 0 to 6 days. At different time points, based on day 0, the cell viability rate was determined by the MTT test, and the cell viability rate at different time points was calculated.

[2] = Side effects of Gemcitabine: body and muscle weight, serum biochemical and blood cell analysis in KC mice; type: in vivo
Text: In the experiment, a 12-week-old LSL-Kras^G12D/−-Pdx-1-Cre (KC) gene transgenic mouse was used to simulate a mouse model of pancreatic cancer. The national laboratory animal center of National Applied Research Laboratories was entrusted to introduce the experimental animals from the Frederick National Laboratory for cancer research, and then conduct breeding, reproducing and embryo freezing, and then the experimental animals are bred in the animal center attached to Chung Shan Medical University in Taichung. The environment for feeding animals is controlled at a room temperature (20 to 23° C.) and in a humidity of 50 to 60%, and the light cycles of day and night are maintained for 12 hours respectively. Experimental animals are allowed to eat and drink freely. All animal experiment procedures were carried out in accordance with the protocol approved by institutional animal care and use committee (IACUC) of Chung Shan Medical University.
In order to induce acute pancreatitis in mice, Caerulein (25 μg/kg/h) were injected into the abdominal cavity of the mice by intraperitoneal (IP) injection every 7 hours 3 days before and 1 day before the experiment. The experimental mice were was divided into 4 groups. The chemotherapeutic drug of Gemcitabine was given with different concentrations (20, 50, 100, 200 mg/kg of body weight), and was administered by intraperitoneal injection for 4 consecutive weeks, once every 3 days, 10 times in total.
Two strains of the Lactobacillus paracasei GMNL-133 and the Lactobacillus reuteri GMNL-89 were used in the experiment, respectively with the ratio of 1:0.1 (1.64×10^7 CFU/0.02 kg of body weight: 1.64×10^6 CFU/0.02 kg of body weight) and the ratio of 1:1 (1.64×10^7 CFU/0.02 kg of body weight: 1.64×10^7 CFU/0.02 kg of body weight). The dosage used is based on that 12.3 times the recommended daily intake per kilogram of body weight for humans is 1 time the dose for mice. The probiotic composition was fed into the stomach of the mice by tube feeding, 5 days a week, once a day, 0.2 mL each time.
In order to study the adverse effects of the Caerulein, the chemotherapeutic drug of the Gemcitabine, and probiotic composition on serum biochemistry and blood cells, blood was collected after cardiac puncture in anesthetized mice, and the blood was immediately sent to Axel Biotechnology Inc. (Taichung) to perform blood tests and serum biochemical analysis.

[3] = test system: advanced pancreatic cancer; settings: first-line chemotherapy for advanced pancreatic cancer; background statement; cited from earlier work
[4] = test system: Caerulein-treated LSL-KrasG12D/−-Pdx-1-Cre (KC) gene transgenic mice (pancreatic intraepithelial neoplasia lesions); experiment: Histological staining (H&E, vimentin and Ki67 immunohistochemistry) of the pancreas in the mouse model of pancreatic cancer; type: in vivo; settings: FIG. 3
Text: After the mice were sacrificed, the pancreas tissue was collected, fixed with formalin solution (TONYAR biotech. Inc., Taiwan), embedded in paraffin, tissue sectioned, and then subjected to H&E staining and immunohistochemical staining. […]

[5] = Caerulein-treated KC mice, Gemcitabine 200 mg/kg alone
[6] = Gemcitabine 20, 50, 100, 200 mg/kg IP alone, compared with untreated mice

Compound: Nc1ccn([C@@H]2O[C@H](CO)[C@@H](O)C2(F)F)c(=O)n1 [Gemcitabine]
- cell viability rate (time of lowest value) [1]: reached the lowest on the sixth day
- death of BXPC-3 pancreatic cancer cells (onset) [1]: caused the death of the BXPC-3 pancreatic cancer cells from the second day
- ALT [2, 5]: 60 U/L
- AST [2, 5]: 351 U/L
- Body weight [2, 5]: 21.10 ± 1.44 g
- Gastrocnemius muscle weight [2, 5]: 0.13 ± 0.00 g
- Platelets [2, 5]: 1222.00 K/μL
- Red blood cell [2, 5]: 8.70 M/μL
- White blood cell [2, 5]: 3.04 K/μL
- body weight and muscle (gastrocnemius) weight ([2]; KC mice treated with Caerulein (25 μg/kg), Gemcitabine alone): lose weight and muscle (gastrocnemius) weight significantly
- liver function index of AST and ALT ([2]; KC mice treated with Caerulein (25 μg/kg), only Gemcitabine): prone to elevate
- 5-year survival rate of patients [3]: 30%
- tissue staining results at the two high doses ([4]; Gemcitabine 100 mg/kg and 200 mg/kg): excellent results
- expressions of the vimentin and the cell proliferation marker of Ki67 [4, 6]: also lower
- pancreatic intraepithelial neoplasia lesion grades (H&E staining) [4, 6]: lower than those of the untreated mice
